Experimental findings from ChEMBL document CHEMBL5335824, “Research progress of LSD1-based dual-target agents for cancer therapy” (Bioorg Med Chem, 2024) are described below.

Where only a bound is given, the exact number is not on record here.

The term IC50 denotes the concentration that gives 50% inhibition. The GI50 is the concentration at which growth is held to half of that of the control. For orientation: inhibition means the relative decrease from the control value, in per cent. Low values mean a response near the control, high ones a response far below the control.

Experiment [1] addresses T1, Histone-lysine N-methyltransferase EHMT2 (Homo sapiens, UniProt Q96KQ7).
T1 sequence (Q96KQ7 whole entry): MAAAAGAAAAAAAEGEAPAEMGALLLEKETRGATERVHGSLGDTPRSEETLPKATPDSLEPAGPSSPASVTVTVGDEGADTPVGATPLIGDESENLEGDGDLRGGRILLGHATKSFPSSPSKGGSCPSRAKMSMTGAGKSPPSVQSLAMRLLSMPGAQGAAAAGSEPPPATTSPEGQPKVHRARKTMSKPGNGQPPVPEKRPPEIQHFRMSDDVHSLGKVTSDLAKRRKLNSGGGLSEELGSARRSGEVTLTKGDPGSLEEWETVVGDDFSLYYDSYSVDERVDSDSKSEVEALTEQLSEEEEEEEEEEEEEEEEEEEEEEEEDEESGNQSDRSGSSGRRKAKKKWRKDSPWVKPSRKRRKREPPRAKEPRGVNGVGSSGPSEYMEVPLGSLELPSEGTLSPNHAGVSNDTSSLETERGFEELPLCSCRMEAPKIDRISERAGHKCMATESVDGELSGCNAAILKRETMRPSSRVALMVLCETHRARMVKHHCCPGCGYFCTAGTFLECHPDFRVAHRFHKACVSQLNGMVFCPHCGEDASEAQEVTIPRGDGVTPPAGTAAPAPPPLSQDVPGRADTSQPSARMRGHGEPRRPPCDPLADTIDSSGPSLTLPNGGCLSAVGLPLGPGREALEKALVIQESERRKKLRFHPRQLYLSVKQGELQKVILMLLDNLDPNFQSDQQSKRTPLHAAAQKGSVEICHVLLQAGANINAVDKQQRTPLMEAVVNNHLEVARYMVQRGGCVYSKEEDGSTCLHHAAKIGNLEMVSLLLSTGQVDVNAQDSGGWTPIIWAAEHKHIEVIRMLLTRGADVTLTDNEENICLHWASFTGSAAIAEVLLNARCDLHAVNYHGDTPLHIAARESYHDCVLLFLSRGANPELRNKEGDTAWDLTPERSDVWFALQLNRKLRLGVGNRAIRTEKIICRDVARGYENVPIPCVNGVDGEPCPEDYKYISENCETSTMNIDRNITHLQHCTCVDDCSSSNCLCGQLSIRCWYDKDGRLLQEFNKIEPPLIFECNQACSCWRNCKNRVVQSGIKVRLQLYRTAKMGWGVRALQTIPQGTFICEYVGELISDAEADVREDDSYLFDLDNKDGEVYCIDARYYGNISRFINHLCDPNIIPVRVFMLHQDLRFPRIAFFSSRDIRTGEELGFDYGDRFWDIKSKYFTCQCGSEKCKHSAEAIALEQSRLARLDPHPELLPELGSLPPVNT
Nature of the experiment: Inhibition of human G9a expressed in HEK293 cells. It is filed as cell-based.

The nature of experiment [2]: Inhibition of DCN1 (unknown origin) by TR-FRET analysis. On the set-up: species or system Homo sapiens. On the technique in general: Time-resolved FRET reads energy transfer from a long-lived donor to a nearby acceptor.
Another experiment deals with MGC-803. Nature of the experiment: cells. The note with it: Homo sapiens, MGC-803, 72 h.
A further experiment relates to SGC-7901. Kind of experiment: cells. Conditions: Homo sapiens, SGC-7901, 72 h.
The test system of the next experiment is BGC-823. Nature of the experiment: cells. The note with it: Homo sapiens, BGC-823, 72 h.
The test system of a further experiment is PC-3. Kind of experiment: Growth inhibition of human PC-3 cells assessed as reduction in cell viability by SRB assay. The format is functional. Conditions: time 48 hrs. For orientation: The SRB assay estimates cell density from bound dye.
In another experiment the test system is DU-145. Kind of experiment: Antiproliferative activity against human DU-145 cells assessed as cell growth inhibition. It is filed as functional, cell-based.
The next experiment deals with THP-1. Nature of the experiment: Antiproliferative activity against human THP-1 cells incubated for 24 hrs by trypan blue reagent based analysis. The format is functional, cell-based. Conditions: THP-1, 24 h.
The subject of another experiment is MOLM-13. Kind of experiment: Antiproliferative activity against human MOLM-13 assessed as reduction in cell growth incubated for 48 hrs by MTT assay. The format is functional, cell-based. Conditions: MOLM-13, 48 h.
For another experiment, the system named is K562. Nature of the experiment: Antiproliferative activity against human K562 assessed as reduction in cell growth incubated for 48 hrs by MTT assay. Conditions: K562, 48 h. The format is functional, cell-based.
For the next experiment, the system named is Jurkat. Kind of experiment: Antiproliferative activity against human Jurkat cells assessed as reduction in cell viability incubated for 48 hrs by cell titer-glo assay. The format is functional, cell-based.
The next experiment deals with NCI-H1975. Kind of experiment: Antiproliferative activity against human NCI-H1975 cells assessed as reduction in cell viability incubated for 48 hrs by MTT assay. The note with it: NCI-H1975, 48 h. A general note: Tetrazolium dyes change colour on reduction, which living cells bring about.
The test system of a further experiment is BXPC-3. Kind of experiment: Antiproliferative activity against human BXPC-3 cells assessed as reduction in cell viability measured for 72 hrs by CCK-8 assay. Conditions: BXPC-3, 72 h. It is filed as functional, cell-based.
Another experiment has as its system MIA PaCa-2. Nature of the experiment: Antiproliferative activity against human MIA PaCa-2 cells assessed as reduction in cell viability incubated for 24 hrs by CCK-8 assay. The note with it: MIA PaCa-2, 24 h. The format is functional, cell-based.
The target of another experiment is Spermine oxidase (Homo sapiens, UniProt Q9NWM0). Kind of experiment: Inhibition of SMOX (unknown origin) using spermine as substrate preincubated for 1 hr followed by substrate addition and measured after 20 mins by luminometer analysis.
Experiment [3] addresses Lysine-specific histone demethylase 1A (Homo sapiens) (UniProt O60341). Nature of the experiment: Inhibition of LSD1 (unknown origin) at 10 uM relative to control.
The subject of a further experiment is MCF7. Nature of the experiment: Antiproliferative activity against human MCF7 cells assessed as reduction in cell viability by MTT assay. The format is functional, cell-based.

Sequence of Spermine oxidase (Q9NWM0 whole entry): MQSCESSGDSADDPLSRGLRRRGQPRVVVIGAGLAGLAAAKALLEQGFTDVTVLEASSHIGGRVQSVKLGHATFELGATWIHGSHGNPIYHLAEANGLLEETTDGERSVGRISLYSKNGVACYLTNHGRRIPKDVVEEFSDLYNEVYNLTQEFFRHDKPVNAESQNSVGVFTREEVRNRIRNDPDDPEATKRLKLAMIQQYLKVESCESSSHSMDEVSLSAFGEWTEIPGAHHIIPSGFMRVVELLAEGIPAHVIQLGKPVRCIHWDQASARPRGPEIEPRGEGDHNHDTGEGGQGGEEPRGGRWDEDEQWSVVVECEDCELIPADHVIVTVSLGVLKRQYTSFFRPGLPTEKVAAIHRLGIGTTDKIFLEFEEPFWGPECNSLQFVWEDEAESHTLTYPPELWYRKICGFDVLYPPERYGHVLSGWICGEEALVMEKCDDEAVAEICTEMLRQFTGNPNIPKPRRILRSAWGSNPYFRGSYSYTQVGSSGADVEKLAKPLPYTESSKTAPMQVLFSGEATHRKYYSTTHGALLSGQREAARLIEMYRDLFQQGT
Description for BGC-823: Antiproliferative activity against human BGC-823 cells assessed as inhibition of cell growth incubated for 72 hrs by MTT assay
Description for MGC-803: Antiproliferative activity against human MGC-803 cells assessed as inhibition of cell growth incubated for 72 hrs by MTT assay
Description for SGC-7901: Antiproliferative activity against human SGC-7901 cells assessed as inhibition of cell growth incubated for 72 hrs by MTT assay

In experiment [1], `COc1cc2nc(NCCCN(C)C)nc(NC3CCN(Cc4ccccc4)CC3)c2cc1OC` came in with an IC50 of 778 nM.

For the molecule `Cc1cc(Sc2nnnn2CCN(C)C)n2nc(SCc3ccc(Cl)cc3)nc2n1`, the IC50 in experiment [2] amounted to 11 nM; with MGC-803 it was 530 nM; in the experiment with SGC-7901, 850 nM; in the experiment with BGC-823, 1000 nM.

As to `C#CCN(C)Cc1cccc(NC(=O)CCCCCCC(=O)NO)c1`, the 50% growth inhibitory concentration (GI50) in the experiment on PC-3 worked out at 330 nM. Moreover, in the experiment on DU-145, the IC50 was 420 nM.

Turning to `CN(C)CCCNc1nc(NC2CCN(Cc3ccccc3)CC2)c2ccccc2n1`, 41300 nM corresponded to half-maximal inhibition in [1] (IC50).

As to `O=C(NO)c1ccc(CN2CCC(CN[C@@H]3C[C@H]3c3ccccc3)CC2)cc1`, the IC50 in the experiment on THP-1 worked out at 16300 nM; with MOLM-13, 1300 nM; with K562, 16600 nM; in the experiment on Jurkat it was 15500 nM.

With `C=CC(=O)Nc1cc(Nc2nccc(-c3cn(C)c4ccccc34)n2)c(OC)cc1N(C)CCN(C)C` [OSIMERTINIB], in the experiment on NCI-H1975, the IC50 was determined as […].

As for `Nc1n[nH]c(NCc2c(Cl)cccc2Oc2ccc(-c3ccccc3)cc2)n1`, the IC50 with BXPC-3 was more than 100000 nM; in the experiment with MIA PaCa-2, 61500 nM; against Spermine oxidase, 25700 nM. The molecule also came in with an inhibition in [3] of 52.1%.

As for `CC/C(=C(/c1ccc(OCCN(C)C)cc1)c1ccc(OC(=O)N(C)CCN(C)C2CC2c2ccccc2)cc1)c1ccccc1` (stereo not drawn), the IC50 in the experiment on MCF7 is 28700 nM.
